Experimental data as given in patent US6153640A, “Benzo[3,4]cyclobuta[1,2-c]pyrrole compounds” (Adir et Compagnie, priority 1999, dated 2000).

Key:
[1] = tested on: male CD mice; test: Test of aggressiveness in isolated mice; format: in vivo; details: Mus musculus, ip, 0.5 h; i.p.; treatment 30 minutes before pairing; 3 minutes observation; read-out: Inhibitory Dose 50 of the number or duration of the attacks
Excerpt: This test allows the evaluation of the intraspecies anti-aggressive activity of a product in mice that have been kept in isolation for several months.
The test uses male CD mice (Charles River) weighing from 22 to 25 g when they arrive at the animal house. On their arrival, the animals are isolated in individual cages made of opaque black polycarbonate (23×14×13 cm) with a grill lid, and are housed for a prolonged period (approximately six months) in the experimentation room.
The selection of aggressive pairs of mice that will be used for an extended period in the study commences after the animals have been isolated for one month. Once or twice per week a mouse from another cage (intruder) is placed in the cage of a (resident) mouse and the two animals are observed to see if they attack one another (sniffing, pursuing, nicking, biting) during that trial. At the end of the trial (maximum duration 10 minutes), each mouse is isolated again in its own cage. If attacks have occurred, the same pair will be tested again in the next trial; if there have been no attacks, each mouse of that pair will be placed in the presence of another mouse in the subsequent trial. […]
The test takes place once a week. […] The latent period (in seconds) of the first attack and the number and total duration (in seconds) of the attacks are recorded. […]

[2] = tested on: levels of serotonin, dopamine and noradrenaline in cingulate frontal cortex; test: Microdialysis experiment in the rat (frontal cortex); format: in vivo; details: 10 mg/kg subcutaneous, baseline defined as 0%
Procedure: Rats are anaesthetised with pentobarbital (60 mg/kg i.p.). They are placed in a Kopf stereotaxic device and the cannula guide is implanted in the cingulate frontal cortex in accordance with the coordinates described in the Paxinos and Watson atlas (1982) as follows: AP=+2.2; L=±0.6; DV=-0.2. The rats are placed in separate cages and are not used in dialysis until 5 days later. […] The probe is perfused at a flow rate of 1 μl/min. with a solution of 147.2 mM NaCl, 4 mM KCl and 2.3 mM CaCl2 adjusted to pH 7.3 with a phosphate buffer (0.1 M). Two hours after implantation, samples are collected every 20 minutes for 4 hours. Three baseline samples are taken before administration of the products to be tested. The rats are left in their individual cages for the whole of the experiment. When the experiment is finished, the rats are decapitated and the brain is removed and frozen in isopentane. Sections of a thickness of 100 μm are cut and stained with cresyl violet, which allows verification of the location of the probes. The simultaneous quantification of dopamine, norepinephrine and serotonin is carried out as follows: 20 μl of dialysis sample are diluted with 20 μl of mobile phase (NaH2 PO4 : 75 mM; EDTA: 20 μM; sodium 1-decanesulphonate: 1 mM; methanol: 17.5%; triethylamine: 0.01%; pH: 5.70) and 33 μl are analysed by HPLC with a reverse phase column thermostatically maintained at 45° C. and are quantified by means of a coulometric detector. The potential of the first electrode of the detector is set at -90 mV (reduction) and the second at +280 mV (oxidation). The mobile phase is injected with a pump at a flow rate of 2 ml/min. The sensitivity limits for dopamine, norepinephrine and serotonin are 0.55 fmole per sample. All the products of the invention are injected subcutaneously in a volume of 1.0 ml/kg. The products are dissolved in distilled water to which a few drops of lactic acid have been added if necessary.

[3] = biological target: T1, serotonin reuptake site (Rattus norvegicus, UniProt P31652); test: Affinity for serotonin reuptake sites ([3H]-paroxetine competition binding); details: [3H]-paroxetine 1.0 nM, rat frontal cortex membranes, 2 hours at 25° C., pH 7.4; read-out: pKi (-log Ki), affinity for serotonin reuptake sites (converted)
T1 construct: The membranes are prepared from rat frontal cortex; from tissue; host or cells: rat frontal cortex membranes
Procedure: The incubation buffer contains […] TRIS-HCl (pH 7.4), 120 mM NaCl and 5 mM KCl. The non-specific binding is determined using 10 μM citalopram. At the end of the incubation, the incubation medium is filtered and washed three times with 5 ml of cooled buffer. The radioactivity retained on the filters is determined by liquid scintillation counting. The binding isotherms are analysed by non-linear regression to determine the IC50 values. Those values are converted into a dissociation constant (Ki) using the Cheng-Prusoff equation: […]
The results are expressed in pKi (-log Ki).

T1 sequence (P31652 whole entry): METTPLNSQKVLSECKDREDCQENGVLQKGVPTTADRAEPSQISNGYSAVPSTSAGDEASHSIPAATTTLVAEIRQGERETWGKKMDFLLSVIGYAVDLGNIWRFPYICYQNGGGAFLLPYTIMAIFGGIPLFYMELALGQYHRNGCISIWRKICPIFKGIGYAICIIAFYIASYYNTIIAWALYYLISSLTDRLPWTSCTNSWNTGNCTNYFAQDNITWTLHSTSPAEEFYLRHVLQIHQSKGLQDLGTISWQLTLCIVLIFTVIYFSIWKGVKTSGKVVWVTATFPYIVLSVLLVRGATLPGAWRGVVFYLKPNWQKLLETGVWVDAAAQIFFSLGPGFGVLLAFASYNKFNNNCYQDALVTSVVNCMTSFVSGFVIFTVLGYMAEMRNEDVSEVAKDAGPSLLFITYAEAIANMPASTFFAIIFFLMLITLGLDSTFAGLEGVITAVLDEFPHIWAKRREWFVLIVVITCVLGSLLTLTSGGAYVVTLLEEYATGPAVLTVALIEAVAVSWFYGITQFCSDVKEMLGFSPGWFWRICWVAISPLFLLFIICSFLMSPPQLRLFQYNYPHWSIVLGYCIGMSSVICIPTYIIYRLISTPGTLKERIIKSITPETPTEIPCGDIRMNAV

c1ccc2c(c1)[C@@H]1CNC[C@]21COc1ccc2c(c1)OCO2 (relative stereo) [Example 1, cis-3a-[(3,4-Methylenedioxyphenoxy)methyl]-2,3,3a,7b-tetrahydro-1H-benzo[3,4]cyclobuta[1,2-c]pyrrole]
ED50 [1]: < 5 mg/kg
increase in the level of dopamine, maximum % of the effect compared with the baseline level [2]: 54.8%±6.4
increase in the level of noradrenaline, maximum % of the effect compared with the baseline level [2]: 96.4%±7.8
increase in the level of serotonin, maximum % of the effect compared with the baseline level [2]: 226.3%±20.1
Ki [3]: 12.6 nM
